Assay results published in patent US4401604A, “Process for preparing thiosulfenamide derivatives of N-phosphonomethylglycine triesters” (Monsanto Company, priority 1981, dated 1983).

Legend:
Format in all cases: in vivo
Barnyardgrass [1] = assay: Post-emergence herbicidal activity, greenhouse
In short: (§1)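 2–3-week-old plants, post-emergence atomizer spray, ~0.4% emulsifier; candidate from 1.0% stock in acetone, THF or water. Greenhouse hold; injury vs control at ~2/4 WAT.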

Canada Thistle [2] = assay: Post-emergence herbicidal activity, greenhouse; settings: Table I, 4 WAT
In short: as §1

Cocklebur [3] = assay: Post-emergence herbicidal activity, greenhouse
In short: as §1

Crabgrass = assay: Post-emergence herbicidal activity, greenhouse; settings: Table II
In short: as §1

Downy Brome [4] = assay: Post-emergence herbicidal activity, greenhouse
In short: as §1

Hemp Sesbania = assay: Post-emergence herbicidal activity, greenhouse; settings: Table II
In short: as §1

Johnsongrass [5] = assay: Post-emergence herbicidal activity, greenhouse; settings: Table I, 4 WAT
In short: as §1

Lambsquarters [6] = assay: Post-emergence herbicidal activity, greenhouse
In short: as §1

Morningglory [7] = assay: Post-emergence herbicidal activity, greenhouse
In short: as §1

Panicum Spp = assay: Post-emergence herbicidal activity, greenhouse; settings: Table II
In short: as §1

Quackgrass [8] = assay: Post-emergence herbicidal activity, greenhouse; settings: Table I, 4 WAT
In short: as §1

Rice = assay: Post-emergence herbicidal activity, greenhouse; settings: Table II
In short: as §1

Smartweed [9] = assay: Post-emergence herbicidal activity, greenhouse
In short: as §1

Sorghum = assay: Post-emergence herbicidal activity, greenhouse; settings: Table II
In short: as §1

Soybean = assay: Post-emergence herbicidal activity, greenhouse; settings: Table II
In short: as §1

Sugar Beet = assay: Post-emergence herbicidal activity, greenhouse; settings: Table II
In short: as §1

Velvetleaf [10] = assay: Post-emergence herbicidal activity, greenhouse
In short: as §1

Wheat = assay: Post-emergence herbicidal activity, greenhouse; settings: Table II
In short: as §1

Wild Buckwheat = assay: Post-emergence herbicidal activity, greenhouse; settings: Table II
In short: as §1

Yellow Nutsedge [11] = assay: Post-emergence herbicidal activity, greenhouse; settings: Table I, 4 WAT
In short: as §1

Barnyardgrass [12] = assay: Pre-emergent herbicidal activity; settings: Table III; 11.2 kg/h; 2 WAT
In short: (§2)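 Emergence counts versus untreated controls, taken after approximately two weeks on a wet sand bench, give an index of average percent control per species. The active ingredient, at a known amount, is blended into the soil that covers seeds pressed onto compacted top soil; watering occurs through the pan bottoms.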

Canada Thistle [13] = assay: Pre-emergent herbicidal activity; settings: Table III; 11.2 kg/h; 2 WAT
In short: as §2

Cocklebur [14] = assay: Pre-emergent herbicidal activity; settings: Table III; 11.2 kg/h; 2 WAT
In short: as §2

Downy Brome [15] = assay: Pre-emergent herbicidal activity; settings: Table III; 11.2 kg/h; 2 WAT
In short: as §2

Johnsongrass [16] = assay: Pre-emergent herbicidal activity; settings: Table III; 11.2 kg/h; 2 WAT
In short: as §2

Lambsquarters [17] = assay: Pre-emergent herbicidal activity; settings: Table III; 11.2 kg/h; 2 WAT
In short: as §2

Morningglory [18] = assay: Pre-emergent herbicidal activity; settings: Table III; 11.2 kg/h; 2 WAT
In short: as §2

Quackgrass [19] = assay: Pre-emergent herbicidal activity; settings: Table III; 11.2 kg/h; 2 WAT
In short: as §2

Smartweed [20] = assay: Pre-emergent herbicidal activity; settings: Table III; 11.2 kg/h; 2 WAT
In short: as §2

Velvetleaf [21] = assay: Pre-emergent herbicidal activity; settings: Table III; 11.2 kg/h; 2 WAT
In short: as §2

Yellow Nutsedge [22] = assay: Pre-emergent herbicidal activity; settings: Table III; 11.2 kg/h; 2 WAT
In short: as §2

`COC(=O)CN(CP(=O)(Oc1ccccc1OC)Oc1ccccc1OC)SSc1cccc(C(F)(F)F)c1` [V] was tested, and the “post-emergence herbicidal activity index” value (Barnyardgrass [1]; Table I, 5.6 kg/h, 4 WAT) was 3 (75-99% control), the “post-emergence herbicidal activity index” value (Barnyardgrass [1]; Table I, 11.2 kg/h, 4 WAT) was 3 (75-99% control) and the “post-emergence herbicidal activity index” value (Barnyardgrass [1]; Table II, 0.28 kg/h, 2 WAT) was 0 (0- 24% control). For the same compound, the “post-emergence herbicidal activity index” value (Barnyardgrass [1]; Table II, 1.12 kg/h, 4 WAT) was 0 (0- 24% control), the “post-emergence herbicidal activity index” value (Barnyardgrass [1]; Table II, 5.6 kg/h, 4 WAT) was 3 (75-99% control) and the “post-emergence herbicidal activity index” value (Canada Thistle [2]; 5.6 kg/h) was 0 (0- 24% control). The “post-emergence herbicidal activity index” value (Canada Thistle [2]; 11.2 kg/h) was 1 (25-49% control), the “post-emergence herbicidal activity index” value (Cocklebur [3]; Table I, 5.6 kg/h, 4 WAT) was 2 (50-74% control) and the “post-emergence herbicidal activity index” value (Cocklebur [3]; Table I, 11.2 kg/h, 4 WAT) was 3 (75-99% control). For the same compound, the “post-emergence herbicidal activity index” value (Cocklebur [3]; Table II, 0.28 kg/h, 2 WAT) was 0 (0- 24% control), the “post-emergence herbicidal activity index” value (Cocklebur [3]; Table II, 1.12 kg/h, 4 WAT) was 1 (25-49% control) and the “post-emergence herbicidal activity index” value (Cocklebur [3]; Table II, 5.6 kg/h, 4 WAT) was 3 (75-99% control). For the same compound, the “post-emergence herbicidal activity index” value (Crabgrass; 0.28 kg/h, 2 WAT) was 0 (0- 24% control), the “post-emergence herbicidal activity index” value (Crabgrass; 1.12 kg/h, 4 WAT) was 2 (50-74% control) and the “post-emergence herbicidal activity index” value (Crabgrass; 5.6 kg/h, 4 WAT) was 3 (75-99% control). For the same compound, the “post-emergence herbicidal activity index” value (Downy Brome [4]; Table I, 5.6 kg/h, 4 WAT) was 1 (25-49% control), the “post-emergence herbicidal activity index” value (Downy Brome [4]; Table I, 11.2 kg/h, 4 WAT) was 1 (25-49% control) and the “post-emergence herbicidal activity index” value (Downy Brome [4]; Table II, 0.28 kg/h, 2 WAT) was 0 (0- 24% control). For the same compound, the “post-emergence herbicidal activity index” value (Downy Brome [4]; Table II, 1.12 kg/h, 4 WAT) was 0 (0- 24% control), the “post-emergence herbicidal activity index” value (Downy Brome [4]; Table II, 5.6 kg/h, 4 WAT) was 0 (0- 24% control) and the “post-emergence herbicidal activity index” value (Hemp Sesbania; 0.28 kg/h, 2 WAT) was 0 (0- 24% control). For the same compound, the “post-emergence herbicidal activity index” value (Hemp Sesbania; 1.12 kg/h, 4 WAT) was 2 (50-74% control), the “post-emergence herbicidal activity index” value (Hemp Sesbania; 5.6 kg/h, 4 WAT) was 1 (25-49% control) and the “post-emergence herbicidal activity index” value (Johnsongrass [5]; 5.6 kg/h) was 1 (25-49% control). For the same compound, the “post-emergence herbicidal activity index” value (Johnsongrass [5]; 11.2 kg/h) was 2 (50-74% control), the “post-emergence herbicidal activity index” value (Lambsquarters [6]; Table I, 5.6 kg/h, 4 WAT) was 3 (75-99% control) and the “post-emergence herbicidal activity index” value (Lambsquarters [6]; Table I, 11.2 kg/h, 4 WAT) was 3 (75-99% control). For the same compound, the “post-emergence herbicidal activity index” value (Lambsquarters [6]; Table II, 0.28 kg/h, 2 WAT) was 0 (0- 24% control), the “post-emergence herbicidal activity index” value (Lambsquarters [6]; Table II, 1.12 kg/h, 4 WAT) was 3 (75-99% control) and the “post-emergence herbicidal activity index” value (Lambsquarters [6]; Table II, 5.6 kg/h, 4 WAT) was 3 (75-99% control). For the same compound, the “post-emergence herbicidal activity index” value (Morningglory [7]; Table I, 5.6 kg/h, 4 WAT) was 1 (25-49% control), the “post-emergence herbicidal activity index” value (Morningglory [7]; Table I, 11.2 kg/h, 4 WAT) was 2 (50-74% control) and the “post-emergence herbicidal activity index” value (Morningglory [7]; Table II, 0.28 kg/h, 2 WAT) was 0 (0- 24% control). For the same compound, the “post-emergence herbicidal activity index” value (Morningglory [7]; Table II, 1.12 kg/h, 4 WAT) was 1 (25-49% control), the “post-emergence herbicidal activity index” value (Morningglory [7]; Table II, 5.6 kg/h, 4 WAT) was 1 (25-49% control) and the “post-emergence herbicidal activity index” value (Panicum Spp; 0.28 kg/h, 2 WAT) was 0 (0- 24% control). For the same compound, the “post-emergence herbicidal activity index” value (Panicum Spp; 1.12 kg/h, 4 WAT) was 0 (0- 24% control), the “post-emergence herbicidal activity index” value (Panicum Spp; 5.6 kg/h, 4 WAT) was 1 (25-49% control) and the “post-emergence herbicidal activity index” value (Quackgrass [8]; 5.6 kg/h) was 1 (25-49% control). The “post-emergence herbicidal activity index” value (Quackgrass [8]; 11.2 kg/h) was 4 (100% control), the “post-emergence herbicidal activity index” value (Rice; 0.28 kg/h, 2 WAT) was 0 (0- 24% control) and the “post-emergence herbicidal activity index” value (Rice; 1.12 kg/h, 4 WAT) was 0 (0- 24% control). The “post-emergence herbicidal activity index” value (Rice; 5.6 kg/h, 4 WAT) was 1 (25-49% control), the “post-emergence herbicidal activity index” value (Smartweed [9]; Table I, 5.6 kg/h, 4 WAT) was 1 (25-49% control) and the “post-emergence herbicidal activity index” value (Smartweed [9]; Table I, 11.2 kg/h, 4 WAT) was 2 (50-74% control). The “post-emergence herbicidal activity index” value (Smartweed [9]; Table II, 0.28 kg/h, 2 WAT) was 0 (0- 24% control), the “post-emergence herbicidal activity index” value (Smartweed [9]; Table II, 1.12 kg/h, 4 WAT) was 3 (75-99% control) and the “post-emergence herbicidal activity index” value (Smartweed [9]; Table II, 5.6 kg/h, 4 WAT) was 2 (50-74% control). The “post-emergence herbicidal activity index” value (Sorghum; 0.28 kg/h, 2 WAT) was 0 (0- 24% control), the “post-emergence herbicidal activity index” value (Sorghum; 1.12 kg/h, 4 WAT) was 0 (0- 24% control) and the “post-emergence herbicidal activity index” value (Sorghum; 5.6 kg/h, 4 WAT) was 0 (0- 24% control). The “post-emergence herbicidal activity index” value (Soybean; 0.28 kg/h, 2 WAT) was 0 (0- 24% control), the “post-emergence herbicidal activity index” value (Soybean; 1.12 kg/h, 4 WAT) was 0 (0- 24% control) and the “post-emergence herbicidal activity index” value (Soybean; 5.6 kg/h, 4 WAT) was 1 (25-49% control). The “post-emergence herbicidal activity index” value (Sugar Beet; 0.28 kg/h, 2 WAT) was 0 (0- 24% control), the “post-emergence herbicidal activity index” value (Sugar Beet; 1.12 kg/h, 4 WAT) was 2 (50-74% control) and the “post-emergence herbicidal activity index” value (Sugar Beet; 5.6 kg/h, 4 WAT) was 2 (50-74% control). For the same compound, the “post-emergence herbicidal activity index” value (Velvetleaf [10]; Table I, 5.6 kg/h, 4 WAT) was 1 (25-49% control), the “post-emergence herbicidal activity index” value (Velvetleaf [10]; Table I, 11.2 kg/h, 4 WAT) was 0 (0- 24% control) and the “post-emergence herbicidal activity index” value (Velvetleaf [10]; Table II, 0.28 kg/h, 2 WAT) was 0 (0- 24% control). The “post-emergence herbicidal activity index” value (Velvetleaf [10]; Table II, 1.12 kg/h, 4 WAT) was 0 (0- 24% control), the “post-emergence herbicidal activity index” value (Velvetleaf [10]; Table II, 5.6 kg/h, 4 WAT) was 1 (25-49% control) and the “post-emergence herbicidal activity index” value (Wheat; 0.28 kg/h, 2 WAT) was 0 (0- 24% control). The “post-emergence herbicidal activity index” value (Wheat; 1.12 kg/h, 4 WAT) was 1 (25-49% control), the “post-emergence herbicidal activity index” value (Wheat; 5.6 kg/h, 4 WAT) was 3 (75-99% control) and the “post-emergence herbicidal activity index” value (Wild Buckwheat; 0.28 kg/h, 2 WAT) was 0 (0- 24% control). For the same compound, the “post-emergence herbicidal activity index” value (Wild Buckwheat; 1.12 kg/h, 4 WAT) was 0 (0- 24% control), the “post-emergence herbicidal activity index” value (Wild Buckwheat; 5.6 kg/h, 4 WAT) was 0 (0- 24% control) and the “post-emergence herbicidal activity index” value (Yellow Nutsedge [11]; 5.6 kg/h) was 1 (25-49% control). For the same compound, the “post-emergence herbicidal activity index” value (Yellow Nutsedge [11]; 11.2 kg/h) was 1 (25-49% control), the “pre-emergent herbicidal activity index” value (Barnyardgrass [12]) was 3 (75-100% control) and the “pre-emergent herbicidal activity index” value (Canada Thistle [13]) was 2 (50-74% control). For the same compound, the “pre-emergent herbicidal activity index” value (Cocklebur [14]) was 0 (0-24% control), the “pre-emergent herbicidal activity index” value (Downy Brome [15]) was 2 (50-74% control) and the “pre-emergent herbicidal activity index” value (Johnsongrass [16]) was 3 (75-100% control). For the same compound, the “pre-emergent herbicidal activity index” value (Lambsquarters [17]) was 0 (0-24% control), the “pre-emergent herbicidal activity index” value (Morningglory [18]) was 1 (25-49% control) and the “pre-emergent herbicidal activity index” value (Quackgrass [19]) was 1 (25-49% control). The “pre-emergent herbicidal activity index” value (Smartweed [20]) was 1 (25-49% control), the “pre-emergent herbicidal activity index” value (Velvetleaf [21]) was 0 (0-24% control) and the “pre-emergent herbicidal activity index” value (Yellow Nutsedge [22]) was 0 (0-24% control).
